Experimental data taken from PubChem BioAssay AID248 (DTP/NCI, 2004).
Where “and” joins values, the source holds several entries; their conditions need not be identical. Identical values can stand only once. Inconclusive results and toxic doses are left out. Cut-off read from the data, not from the text of the source: active = T/C of 150% or more; inactive = T/C below 125%.

System: L1210 leukemia ip in BDF1 mice, survival T/C
Assay: NCI In Vivo Anticancer Drug Screen. Data for tumor model L1210 Leukemia (intraperitoneal) in B6D2F1 (BDF1) mice
Settings: endpoint: mean survival time, higher = longer survival
In short: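 Transplanted-tumor mice were given test agent; controls received vehicle only. Survival readings from the two groups were divided (treated over control).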

[1] = dose: 50.0 mg/kg/injection, schedule: Q01DX001 (ip), vehicle: carboxymethylcellulose (CMC)
[2] = dose: 100.0 mg/kg/injection, schedule: Q01DX001 (ip), vehicle: carboxymethylcellulose (CMC)
[3] = dose: 100.0 mg/kg/injection, schedule: Q04DX002 (ip), vehicle: Klucel (hydroxypropylcellulose) (HPC)
[4] = dose: 200.0 mg/kg/injection, schedule: Q01DX001 (ip), vehicle: carboxymethylcellulose (CMC)
[5] = dose: 200.0 mg/kg/injection, schedule: Q04DX002 (ip), vehicle: Klucel (hydroxypropylcellulose) (HPC)
[6] = dose: 400.0 mg/kg/injection, schedule: Q01DX001 (ip), vehicle: carboxymethylcellulose (CMC)
[7] = dose: 400.0 mg/kg/injection, schedule: Q04DX002 (ip), vehicle: Klucel (hydroxypropylcellulose) (HPC)
[8] = dose: 100.0 mg/kg/injection, schedule: Q01DX009 (ip), vehicle: saline
[9] = dose: 100.0 mg/kg/injection, schedule: Q04DX003 (ip), vehicle: saline
[10] = dose: 200.0 mg/kg/injection, schedule: Q01DX009 (ip), vehicle: saline
[11] = dose: 200.0 mg/kg/injection, schedule: Q04DX003 (ip), vehicle: saline
[12] = dose: 400.0 mg/kg/injection, schedule: Q01DX009 (ip), vehicle: saline
[13] = dose: 100.0 mg/kg/injection, schedule: Q04DX003 (ip), vehicle: Klucel (hydroxypropylcellulose) (HPC)
[14] = dose: 200.0 mg/kg/injection, schedule: Q04DX003 (ip), vehicle: Klucel (hydroxypropylcellulose) (HPC)
[15] = dose: 400.0 mg/kg/injection, schedule: Q04DX003 (ip), vehicle: Klucel (hydroxypropylcellulose) (HPC)
[16] = dose: 100.0 mg/kg/injection, schedule: Q01DX009 (ip), vehicle: Klucel (hydroxypropylcellulose) (HPC)
[17] = dose: 25.0 mg/kg/injection, schedule: Q04DX003 (ip), vehicle: saline
[18] = dose: 50.0 mg/kg/injection, schedule: Q04DX003 (ip), vehicle: saline
[19] = dose: 50.0 mg/kg/injection, schedule: Q01DX009 (ip), vehicle: saline

Measured: T/C

Cc1ccc2c(c1)C(=O)c1ccccc1C2=O
inactive: [1] 95 % of control | [2] 101 % of control | [3] 100 % of control | [4] 91 % of control | [5] 107 % of control | [6] 95 % of control | [7] 96 % of control

CCCCCCCCP(=S)(CCCCCC)CCCCCC
inactive: dose: 100.0 mg/kg/injection, schedule: Q01DX001 (ip), vehicle: saline with Tween-80 104 % of control | dose: 200.0 mg/kg/injection, schedule: Q01DX001 (ip), vehicle: saline with Tween-80 90 % of control | dose: 400.0 mg/kg/injection, schedule: Q01DX001 (ip), vehicle: saline with Tween-80 87 % of control

[Cl][Sn]([c]1ccccc1)([c]1ccccc1)[c]1ccccc1
inactive: dose: 2.5 mg/kg/injection, schedule: Q01DX009 (ip), vehicle: Klucel (hydroxypropylcellulose) (HPC) 89 % of control | dose: 5.0 mg/kg/injection, schedule: Q01DX001 (ip), vehicle: saline 95 % of control | dose: 5.0 mg/kg/injection, schedule: Q01DX009 (ip), vehicle: Klucel (hydroxypropylcellulose) (HPC) 97 % of control and 106 % of control | dose: 5.0 mg/kg/injection, schedule: Q04DX003 (ip), vehicle: Klucel (hydroxypropylcellulose) (HPC) 95 % of control | dose: 10.0 mg/kg/injection, schedule: Q01DX001 (ip), vehicle: saline 101 % of control | dose: 10.0 mg/kg/injection, schedule: Q04DX003 (ip), vehicle: Klucel (hydroxypropylcellulose) (HPC) 90 % of control | dose: 20.0 mg/kg/injection, schedule: Q01DX001 (ip), vehicle: saline 95 % of control | dose: 40.0 mg/kg/injection, schedule: Q01DX001 (ip), vehicle: saline 91 % of control

c1ccc2c(c1)OCCOCCOc1ccccc1OCCOCCO2
inactive: [8] 98 % of control and 89 % of control | [9] 94 % of control and 92 % of control | [10] 101 % of control and 92 % of control | [11] 93 % of control and 92 % of control | [12] 94 % of control and 91 % of control | dose: 400.0 mg/kg/injection, schedule: Q04DX003 (ip), vehicle: saline 89 % of control and 90 % of control

CC(C)NC(=O)OC(C)C
inactive: [13] 96 % of control | [14] 104 % of control | [15] 98 % of control

O=[N+]([O-])c1ccccc1N=Nc1c(O)[nH]c2ccccc12
inactive: dose: 100.0 mg/kg/injection, schedule: Q01DX001 (ip), vehicle: other 102 % of control | dose: 200.0 mg/kg/injection, schedule: Q01DX001 (ip), vehicle: other 98 % of control | dose: 400.0 mg/kg/injection, schedule: Q01DX001 (ip), vehicle: other 102 % of control

CCCCCCCCOB(OCCCCCCCC)OCCCCCCCC
inactive: [1] 96 % of control | [2] 100 % of control | dose: 100.0 mg/kg/injection, schedule: Q01DX009 (ip), vehicle: saline with Tween-80 96 % of control | dose: 100.0 mg/kg/injection, schedule: Q04DX003 (ip), vehicle: saline with Tween-80 98 % of control | [4] 96 % of control | dose: 200.0 mg/kg/injection, schedule: Q01DX009 (ip), vehicle: saline with Tween-80 95 % of control | dose: 200.0 mg/kg/injection, schedule: Q04DX003 (ip), vehicle: saline with Tween-80 94 % of control | [6] 100 % of control

CC12C=CC3(CCC4C(C)(C)C(O)C(=O)CC4(C)C3CC1=O)C2 (stereo unspecified)
inactive: [16] 105 % of control | [13] 101 % of control | dose: 200.0 mg/kg/injection, schedule: Q01DX009 (ip), vehicle: Klucel (hydroxypropylcellulose) (HPC) 97 % of control | [14] 101 % of control | dose: 400.0 mg/kg/injection, schedule: Q01DX009 (ip), vehicle: Klucel (hydroxypropylcellulose) (HPC) 107 % of control | [15] 98 % of control

COc1cc(N=Nc2ccccc2)ccc1N
inactive: dose: 100.0 mg/kg/injection, schedule: Q01DX001 (ip), vehicle: saline 95 % of control | dose: 100.0 mg/kg/injection, schedule: Q04DX003 (ip), vehicle: acetone 100 % of control and 111 % of control | dose: 200.0 mg/kg/injection, schedule: Q01DX001 (ip), vehicle: saline 112 % of control | dose: 200.0 mg/kg/injection, schedule: Q04DX003 (ip), vehicle: acetone 95 % of control | dose: 400.0 mg/kg/injection, schedule: Q01DX001 (ip), vehicle: saline 96 % of control | dose: 400.0 mg/kg/injection, schedule: Q04DX003 (ip), vehicle: acetone 96 % of control and 91 % of control

CCCCCCOP(=O)(CCCCCC)OCCCCCC
inactive: dose: 13.3 mg/kg/injection, schedule: Q01DX Z (ip), vehicle: methylcellulose (MC) 96 % of control | dose: 20.0 mg/kg/injection, schedule: Q01DX Z (ip), vehicle: methylcellulose (MC) 102 % of control | dose: 25.0 mg/kg/injection, schedule: Q01DX009 (ip), vehicle: Klucel (hydroxypropylcellulose) (HPC) 93 % of control | dose: 25.0 mg/kg/injection, schedule: Q04DX003 (ip), vehicle: Klucel (hydroxypropylcellulose) (HPC) 94 % of control | dose: 30.0 mg/kg/injection, schedule: Q01DX Z (ip), vehicle: methylcellulose (MC) 95 % of control | dose: 50.0 mg/kg/injection, schedule: Q01DX009 (ip), vehicle: Klucel (hydroxypropylcellulose) (HPC) 101 % of control | dose: 50.0 mg/kg/injection, schedule: Q04DX003 (ip), vehicle: Klucel (hydroxypropylcellulose) (HPC) 89 % of control | [16] 98 % of control | [13] 103 % of control

CCCCNCCCC
inactive: [17] 102 % of control | [18] 96 % of control | [9] 94 % of control

CCCCCCCCCC(=O)Nc1cccc(C)c1C
inactive: [3] 105 % of control | [5] 94 % of control | [7] 94 % of control

CN(C)CCSC(=O)N1c2ccccc2C(C)(C)c2ccccc21
inactive: dose: 12.5 mg/kg/injection, schedule: Q01DX009 (ip), vehicle: saline 94 % of control | dose: 25.0 mg/kg/injection, schedule: Q01DX009 (ip), vehicle: saline 100 % of control | [17] 91 % of control | [19] 111 % of control | [18] 102 % of control | [9] 96 % of control | [11] 90 % of control

O=S(=O)(CCO)CCO
inactive: [19] 100 % of control | [8] 100 % of control and 88 % of control | [10] 96 % of control and 100 % of control | [12] 97 % of control

ClCCN(CCCl)c1ccc(Nc2nc(Nc3ccc(N(CCCl)CCCl)cc3)c3ccccc3n2)cc1
inactive: dose: 25.0 mg/kg/injection, schedule: Q04DX002 (ip), vehicle: saline 105 % of control | dose: 50.0 mg/kg/injection, schedule: Q04DX002 (ip), vehicle: saline 113 % of control | dose: 100.0 mg/kg/injection, schedule: Q04DX002 (ip), vehicle: saline 111 % of control | dose: 200.0 mg/kg/injection, schedule: Q04DX002 (ip), vehicle: saline 106 % of control and 109 % of control | dose: 400.0 mg/kg/injection, schedule: Q04DX002 (ip), vehicle: saline 95 % of control
